Measurements reported in patent US20120107248A1, “IMAGING GASTROINTESTINAL VOLUMES AND MOTILITY” (MAYO FOUNDATION FOR MEDICAL EDUCATION AND RESEARCH, priority 2009, published 2012).

Assays:
[1] = in vivo; cited from earlier work
[2] = system: gastric wall; assay: Abdominal MRI studies in mice with automated segmentation (Example 5); type: in vivo
Procedure: Ten abdominal MRI studies in mice were performed under three conditions in sequential order: fasting pre-contrast, fasting post-contrast, and postprandial post-contrast (after feeding with 80 μL egg yolk). Five studies each were conducted with a commercially-available gadolinium contrast agent (gadopentetic acid, Magnevist™) and with Gd-DOTA-3COOH-S-Pantoprazole. Mice were administered 2.5 mg of Magnevist or Gd-DOTA-3COOH-S-Pantoprazole in a volume of 10 μL intravenously. […] In these images the gastric lumen is marked “s.” The images were analyzed by standard techniques (i.e., full-width-half-maximum method). Following administration of Magnevist, the uptake signal increased diffusely, as shown by the arrow. […] In the Gd-DOTA-3COOH-S-Pantoprazole study, the algorithm only identified the stomach boundary after contrast, i.e., fasting and postprandial images, but the conjugate was capable of discriminating the stomach wall from its contents and surrounding tissues. Comparison of gastric wall signal intensity over time after intravenous Magnevist and Gd-DOTA-3COOH-S-Pantoprazole is shown in FIG. 9. Data were sampled at 120 equidistant points around the gastric wall.

| SMILES | blood clearance time [1] | splenic uptake / gastro-splenic boundary ([2]; 2.5 mg intravenously, FIG. 7) | gastric wall signal and automated segmentation of the gastric outline ([2]; 2.5 mg intravenously, full-width-half-maximum method, FIG. 6) | gastric wall signal intensity over time: difference between fasting post contrast and postprandial post contrast images ([2]; 120 equidistant points around the gastric wall, FIG. 9) | gastric wall thickness measurements ([2]; segmentation algorithm, FIG. 7 and FIG. 8) |
| --- | --- | --- | --- | --- | --- |
| O=C([O-])CN(CCN(CC(=O)[O-])CC(=O)O)CCN(CC(=O)[O-])CC(=O)O.[Gd+3] [Gd(DTPA), gadolinium diethylenetriaminepentaacetate] | approximately 2 minutes |  |  |  |  |
| CNC[C@H](O)[C@@H](O)[C@H](O)[C@H](O)CO.CNC[C@H](O)[C@@H](O)[C@H](O)[C@H](O)CO.O=C([O-])CN(CCN(CC(=O)[O-])CC(=O)O)CCN(CC(=O)[O-])CC(=O)O.[Gd+3] [Magnevist, gadopentetic acid, reference compound] |  | marked splenic uptake | could not accurately identify the gastric outline | higher difference | overestimates stomach wall thickness |
